The target in test [1] is T1, Leucine--tRNA ligase (Mycobacterium tuberculosis (strain ATCC 25618 / H37Rv)) (UniProt P9WFV1).
T1 sequence (whole entry): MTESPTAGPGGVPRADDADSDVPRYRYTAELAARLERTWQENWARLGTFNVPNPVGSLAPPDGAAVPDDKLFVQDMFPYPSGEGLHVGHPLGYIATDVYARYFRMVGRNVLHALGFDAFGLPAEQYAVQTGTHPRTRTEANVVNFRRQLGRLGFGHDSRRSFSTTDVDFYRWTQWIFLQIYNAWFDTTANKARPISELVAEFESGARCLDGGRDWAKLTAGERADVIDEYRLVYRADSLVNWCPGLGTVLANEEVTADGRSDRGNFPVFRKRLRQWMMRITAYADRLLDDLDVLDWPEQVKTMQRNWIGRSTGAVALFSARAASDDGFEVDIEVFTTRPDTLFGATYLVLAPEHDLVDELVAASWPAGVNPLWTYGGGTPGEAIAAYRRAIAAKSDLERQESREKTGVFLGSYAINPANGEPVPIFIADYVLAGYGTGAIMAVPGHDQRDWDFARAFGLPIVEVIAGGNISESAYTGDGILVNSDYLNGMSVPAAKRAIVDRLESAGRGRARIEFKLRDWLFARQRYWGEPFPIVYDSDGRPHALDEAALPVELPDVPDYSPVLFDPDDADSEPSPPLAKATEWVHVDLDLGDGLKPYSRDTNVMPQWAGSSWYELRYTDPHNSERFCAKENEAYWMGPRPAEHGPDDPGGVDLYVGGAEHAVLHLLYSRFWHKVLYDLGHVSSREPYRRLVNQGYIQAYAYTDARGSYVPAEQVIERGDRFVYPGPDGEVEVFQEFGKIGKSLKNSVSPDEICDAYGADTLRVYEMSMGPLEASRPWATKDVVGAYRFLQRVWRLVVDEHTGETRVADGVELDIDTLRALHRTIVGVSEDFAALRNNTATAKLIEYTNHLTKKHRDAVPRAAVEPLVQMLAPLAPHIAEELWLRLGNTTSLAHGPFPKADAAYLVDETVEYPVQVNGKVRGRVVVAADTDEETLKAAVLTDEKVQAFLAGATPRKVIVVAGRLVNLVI
Description: Inhibition of Mycobacterium tuberculosis LeuRS expressed in Escherichia coli Rosetta (DE3) cells at 100 uM incubated for 30 mins followed by incubation with ATP, leucine, tRNA, iPPase for 10 mins and measured after 30 mins by BIOMOL Green reagent based plate reader analysis relative to control.

Test [2] deals with Mycobacterium tuberculosis H37Rv. Kind of test: Inhibition of recombinant Mycobacterium tuberculosis H37Rv C-terminal His6-tagged MetRS expressed in Escherichia coli BL21 (DE3) Star cells at 100 uM incubated for 30 mins followed by incubation with ATP, methionine, tRNA, iPPase for 10 mins and measured after 30 mins by BIOMOL Green reagent based plate reader analysis relative to control.

Test [3] relates to Saccharomyces cerevisiae. Description: Inhibition of yeast inorganic pyrophosphatase assessed as inhibition of BIOMOL-Green signal using inorganic pyrophosphate as substrate at 50 uM incubated for 10 mins in MtbMetRS reaction buffer and measured after 30 mins by BIOMOL-Green reagent based plate reader analysis.
Test [4] is described as follows: Inhibition of BIOMOL-Green signal at 50 uM in MtbMetRS reaction buffer in presence of 10 uM phosphate standard measured after 30 mins by plate reader analysis.
For test [5], the target named is T2, Leucine--tRNA ligase (Mycobacterium tuberculosis (strain ATCC 25618 / H37Rv), UniProt P9WFV1).
T2 sequence (P9WFV1 whole entry): T1 sequence (whole entry)
Kind of test: Inhibition of Mycobacterium tuberculosis LeuRS expressed in Escherichia coli Rosetta (DE3) cells incubated for 30 mins followed by incubation with ATP, leucine, tRNA, iPPase for 10 mins and measured after 30 mins by BIOMOL Green reagent based plate reader analysis.

Test [6] in a line: Inhibition of recombinant Mycobacterium tuberculosis H37Rv C-terminal His6-tagged MetRS expressed in Escherichia coli BL21 (DE3) Star cells incubated for 30 mins followed by incubation with ATP, methionine, tRNA, iPPase for 10 mins and measured after 30 mins by BIOMOL Green reagent based plate reader analysis.
In test [7] the test system is Mycobacterium tuberculosis. In kind it is functional. As to conditions: H37Rv ATCC 27294, 168 h; call rule not given here.
The test system of test [8] is Mycobacterium tuberculosis. Format: functional. As to conditions: H37Rv ATCC 27294, 336 h.
Test [9] relates to Mycobacterium tuberculosis. Format: functional. To be noted: H37Rv ATCC 27294, 168 h. The source holds these as a separate data set.
Test [10] has as its system Mycobacterium tuberculosis. Format: functional. As to conditions: H37Rv ATCC 27294, 336 h. This is another data set of the same source.
For test [11], the system named is Mycobacterium tuberculosis. In kind it is functional. As to conditions: H37Rv ATCC 27294, 168 h. This is another data set of the same source.
The subject of test [12] is Mycobacterium tuberculosis. In kind it is functional. To be noted: H37Rv ATCC 27294, 336 h. This is another data set of the same source.
Test [13] deals with Mycobacterium tuberculosis. Format: functional. To be noted: H37Rv ATCC 27294, 168 h. The source holds these as a separate data set.
The test system of test [14] is Mycobacterium tuberculosis. In kind it is functional. To be noted: H37Rv ATCC 27294, 336 h. This is another data set of the same source.

Drawing on ChEMBL document CHEMBL4373683, “Dual-target inhibitors of mycobacterial aminoacyl-tRNA synthetases among N-benzylidene-N'-thiazol-2-yl-hydrazines” (Medchemcomm, 2019), this text covers inhibition, IC50 and MIC for 39 molecules.

Structures are written as SMILES. In brackets after ≈: the same amount, converted by molar mass. A value given as a limit tells only on which side of the number the result lay.

Regarding `CCc1ccc(/C=N/Nc2nc(-c3cccc([N+](=O)[O-])c3)cs2)cc1`, the inhibition in test [1] stood at 3%; in [2], 27%.

Take `COC(=O)c1sc(N/N=C/c2ccc(Br)cc2)nc1C`: the inhibition is 46% in test [1], 88% in [2], < 35% in test [3] and < 35% in test [4].

On to `O=[N+]([O-])c1cc(/C=N/Nc2nc(-c3ccccc3)cs2)ccc1O`, for which the inhibition is 53% in test [1], 72% in [2], < 35% in test [3] and < 35% in test [4].

Take `Cc1sc(N/N=C/c2cccc(O)c2)nc1-c1ccccc1`: the inhibition in [1] was 65%; in [2], 112%; in test [3], < 35%; in [4] it was < 35%.

Consider `COc1cc(/C=N/Nc2nccs2)ccc1OCc1ccccc1Cl`, for which the inhibition in [1] is 64%; in [2], 102%; in test [3], < 35%; in [4] it was < 35%.

In the case of `Oc1ccccc1/C=N/Nc1nc(-c2ccccc2)cs1`, the inhibition came to 7% in test [1] and 51% in test [2].

In the case of `COc1ccc(/C=N/Nc2nc(C)cs2)cc1Br`, the 50% inhibitory concentration (IC50) was 95 µM in [5] and “Not Active” in test [6].

As to `CCOC(=O)c1sc(N/N=C/c2cc(Br)c(O)c(Br)c2)nc1C`, the inhibition turned out to be 55% in test [1] and 51% in test [2].

Consider `COC(=O)c1sc(N/N=C/c2ccc(C(=O)O)cc2)nc1C`, for which the inhibition in test [1] was 12%.

Take `COC(=O)c1sc(N/N=C/c2ccc([N+](=O)[O-])cc2)nc1C`: the figures for the inhibition in [1] and in test [2] were 88% and 75%, respectively.

`COc1cc(/C=N/Nc2nccs2)cc(Br)c1OCc1ccccc1`: the inhibition is 55% in [1], 106% in test [2], < 35% in test [3] and < 35% in test [4].

For the molecule `O=[N+]([O-])c1cccc(-c2csc(N/N=C/c3ccccc3Br)n2)c1`, the results for the inhibition in test [1] and in test [2] were 80% and 93%, respectively. The concentration for half-maximal inhibition (IC50) in test [5] is 8.9 µM; in [6] (read-out: IC50), 6.5 µM. The minimum inhibitory concentration (MIC) in test [7] was > 50 µM; in test [8] it was > 50 µM; in test [9], ≥ 50 µM; in [10], > 50 µM; in test [11] it was 37 µM (≈ 14.9 µg/mL); in test [12], > 50 µM. For the same molecule, the results for the minimum inhibitory concentration (MIC) in test [13] and in [14] were 37 µM (≈ 14.9 µg/mL) and 50 µM (≈ 20.2 µg/mL), respectively.

Regarding `O=[N+]([O-])c1cccc(-c2csc(N/N=C/c3cccc(Oc4ccccc4)c3)n2)c1`, the inhibition in [1] is 11%; in test [2], 65%.

On to `COc1cc(/C=N/Nc2nc(-c3ccc([N+](=O)[O-])cc3)cs2)cc([N+](=O)[O-])c1O`, for which the inhibition in [1] worked out at 103%; in test [2], 94%. Also, the IC50 worked out at 5.8 µM in test [5] and 4.2 µM in test [6] (read-out: IC50). Besides, the minimum inhibitory concentration (MIC) in test [7] is 50 µM (≈ 20.8 µg/mL); in test [8], ≥ 50 µM; in test [9], 50 µM (≈ 20.8 µg/mL); in test [10] it was > 50 µM; in [11], > 50 µM; in [12] it was > 50 µM. Further, the figures for the minimum inhibitory concentration (MIC) in test [13] and in [14] were ≥ 50 µM and > 50 µM, respectively.

As to `COc1cc(/C=N/Nc2nccs2)ccc1OC(=O)c1ccc(Cl)cc1Cl`, the inhibition in [1] is 73%; in test [2], 142%; in [3], < 35%; in [4], < 35%.

Take `Cc1csc(N/N=C/c2ccccc2Br)n1`: the half-inhibitory concentration (IC50) in test [5] is 38.4 µM; in test [6] (read-out: IC50), 123 µM.

Consider `CCOC(=O)c1sc(N/N=C/c2ccccc2Br)nc1C`, for which the inhibition in test [1] stood at 67%; in test [2], 99%.

As to `COc1cc(/C=N/Nc2nc(-c3ccc(Br)cc3)cs2)cc([N+](=O)[O-])c1O`, the inhibition in test [1] was 113%; in test [2], 110%; in test [3] it was < 35%; in test [4], < 35%.

For the molecule `COc1cccc(/C=N/Nc2nc(C)cs2)c1OC`, the figures for the inhibition in [1] and in test [2] were 17% and 25%, respectively.

On to `CCOC(=O)c1sc(N/N=C/c2cccc(O)c2)nc1C`, for which the values for the inhibition in test [1] and in test [2] were 1% and 71%, respectively.

Turning to `COc1ccc(/C=N/Nc2nccs2)cc1Br`, the inhibition in test [1] came to 29%; in test [2], 90%.

As for `CCCCCCOc1ccc(/C=N/Nc2nccs2)cc1OC`, the inhibition in test [1] stood at 47%; in test [2], 62%.

Turning to `COc1ccc(/C=N/Nc2nc(C)c(C)s2)cc1`, the inhibition in test [1] and in [2] was 1% in each case.

On to `Cc1csc(N/N=C/c2ccc(C(=O)O)cc2)n1`, for which, in test [1], the inhibition is -4%.

`CCOC(=O)Cc1csc(N/N=C/c2ccc(C(=O)O)cc2)n1`: the inhibition was determined as 12% in [1] and 22% in test [2].

As for `CCOC(=O)c1sc(N/N=C/c2ccc(Br)cc2)nc1C`, the inhibition in [1] is 39%; in test [2], 111%; in [3], < 35%; in [4] it was < 35%.

Consider `CCOC(=O)c1sc(N/N=C/c2ccccc2)nc1C`, for which the inhibition in [1] was 19%; in test [2], 73%.

As to `NNC(=O)c1ccncc1` [ISONIAZID], the MIC in test [7] was 0.1 µM (≈ 0.0137 µg/mL); in [8] it was 0.3 µM (≈ 0.0411 µg/mL); in test [9] it was 0.6 µM (≈ 0.0823 µg/mL); in [10] it was 0.6 µM (≈ 0.0823 µg/mL); in test [11], 0.07 µM (≈ 0.0096 µg/mL); in [12] it was 0.1 µM (≈ 0.0137 µg/mL). For the same molecule, the minimal inhibitory concentration (MIC) in [13] and in test [14] was 0.39 µM (≈ 0.0535 µg/mL) throughout.

In the case of `COc1cc(/C=N/Nc2nc(C)c(C(C)=O)s2)ccc1OCc1ccccc1Cl`, the inhibition is 87% in test [1], 113% in [2], < 35% in test [3] and < 35% in test [4].

Take `O=[N+]([O-])c1ccccc1/C=N/Nc1nccs1`: the inhibition in [1] was found to be 45%; in test [2], 51%.

In the case of `Cc1csc(N/N=C/c2cc(Br)ccc2O)n1`, the inhibition turned out to be 39% in test [1] and 113% in test [2].

Consider `COc1ccc(OC)c(/C=N/Nc2nc(-c3cccnc3)cs2)c1`, for which the inhibition was determined as 74% in test [1] and 115% in [2].

Turning to `CCOC(=O)c1sc(N/N=C/c2ccccc2C(F)(F)F)nc1C`, the inhibition in [1] stood at 34%; in test [2], 45%.

With `CCOC(=O)c1sc(N/N=C/c2cc(Br)c(O)c(OC)c2)nc1C`, the inhibition in [1] was found to be 54%; in test [2], 94%.

In the case of `CN(C)c1ccc(/C=N/Nc2nc(-c3ccccc3)cs2)cc1`, the inhibition was 65% in test [1], 123% in test [2], < 35% in [3] and < 35% in test [4].

Consider `Brc1ccccc1/C=N/Nc1nc(-c2ccccc2)cs1`, for which the IC50 in test [5] came to 24.1 µM; in test [6] (read-out: IC50), 37.5 µM.

For `Cc1csc(N/N=C/c2ccc([N+](=O)[O-])cc2)n1`, the inhibition was determined as 20% in [1] and 92% in [2].

Take `CCOC(=O)c1sc(N/N=C/c2ccc(C(=O)O)cc2)nc1C`: the values for the inhibition in test [1] and in test [2] were -7% and 6%, respectively.

With `CCOc1ccc(/C=N/Nc2nc(C)c(C(C)=O)s2)cc1`, the inhibition in [1] is 20%; in test [2] it was 53%.

The term inhibition denotes the drop in the measured response relative to a control, in per cent. In general, IC50 refers to the concentration that inhibits the measured activity by half. What is called MIC is the lowest concentration that inhibits growth of the organism. A low value points to greater potency.
